Experimental data published in paper PMC6756013, “B591, a novel specific pan-PI3K inhibitor, preferentially targets cancer stem cells” (Oncogene, 2019).

Columns and labels:
[1] = test system: phosphorylation of Akt and ERK in RD cells; assay: Immunoblotting of feedback activation of Akt and ERK; assay type: cell-based, human; settings: up to 24 h, B591 10 μM
Experimental: Fig. 2 B591 inhibits PI3K/Akt pathway in multiple cancer cell lines. a Representative images of Akt1 redistribution in IGF-1-treated cells in the absence or presence of B591. Scale bar represents 10 μm. Arrows indicate IGF-1-mediated membrane translocation detected by the image analysis algorithm. b Inhibition of mTORC1 and mTORC2 signaling in multiple cancer cell lines, exposed for 5 h to increasing concentrations of B591. c HepG2 cells were treated with DMSO or 20 μM of B591 for 5 h. Immunofluorescence (red) intensity reflects eIF4E subcellular distribution. Cells were visualized with high content reader. Representative images are shown, and scale bar represents 50 μm. d Nuclear-to-cytoplasmic ratio of eIF4E in five cancer cell lines was determined via high content reader. e The phosphorylation of AKT and ERK was determined by immunoblotting in RD cells in the presence of 10 μM of B591 after indicated time of exposure. f Inhibition of the phosphorylation of AKT and ERK in RD cells treated with B591, PI-103 or Rapamycin for 24 h was determined by immunoblotting
Despite a significant efficacy in preclinical models, the clinical tumor response to mTORC1 inhibitors, such as rapalogs, is modest. […]

[2] = test system: PI3K/Akt signaling in MDA-MB-231 and SUM-159PT cells; assay: Western blot of PI3K/mTOR signaling (Supplementary Fig. S5A); settings: 5 h
SUM-159PT cells = assay: Mammosphere formation after paclitaxel pre-treatment; assay type: cell-based; settings: 8 nM Paclitaxel or 8 nM Paclitaxel plus 5 μM B591 for 24 h
Experimental: (§1) Fig. 6 B591 reduces breast tumor metastasis and recurrence. a Representative images show the effect of B591 (8 mg/kg) on lung metastasis of 4T1 cells, and data from six mice were plotted. b SUM-159PT cells were respectively treated with the indicated agents (8 nM Paclitaxel, 8 nM Paclitaxel plus 5 μM B591) for 24 h, the cells were then cultured for mammospheres. Representative images were shown, and data from two independent experiments were plotted. c–f SUM-159PT xenografts (n = 7) were treated with 4 mg/kg Paclitaxel, or 10 mg/kg B591, or both for 2 weeks, then ended the treatment and waited for tumor recurrence. Tumor volume (c) and body weight (d) were measured every 2 days after treatment, and tumors were photographed (e) and weighted (f) at the end of the experiment. ^*p < 0.05, ^**p < 0.01 versus indicated groups
Based on the finding that B591 preferentially targets CSCs, we supposed that by eliminating the breast CSCs, B591 might delay breast tumor recurrence after initial treatment with chemotherapy drugs. Paclitaxel is a first-line chemotherapeutic agent used for breast cancer therapy. SUM-159PT cells were pre-treated with paclitaxel, and then the cells remaining alive were cultured for mammospheres.

[3] = test system: MDA-MB-231 and SUM-159PT monolayer and mammosphere cells; assay: Apoptosis of monolayer versus mammosphere cells (PE-Annexin V/7-AAD); assay type: cell-based, human; settings: 48 h
Experimental: (§2) Cells were treated with indicated agents for 48 h, and cells were harvested and processed for apoptosis assay using the PE-Annexin V/7-AAD Apoptosis Detection Kit. d Representative flow cytometry plots of apoptosis inducing activity of B591 (10 μM) and paclitaxel (10 nM) on monolayer and mammosphere MDA-MB-231 cells. e B591 preferentially targeted CD44^high/CD24^low cells. Cells were treated with B591 or paclitaxel for 2 days. Following a 4-day recovery period, cells were co-stained with CD44 and CD24 antibodies and subjected to FACS analysis. Representative flow cytometry plots show the effect of B591 on CD44^high/CD24^low population in MDA-MB-231 cells in vitro. f B591 decreased mammosphere forming efficiency. Primary MDA-MB-231 mammospheres were treated with B591 or paclitaxel for 48 h. Results of the secondary mammosphere-formation assay are shown. Scale bar represents 40 μm. g B591 decreased the expression of CSC markers in MDA-MB-231 cells. Cells were treated with B591 or paclitaxel for 2 days. […] They label a gated population in plots with axes CD44 and CD24. / Panel E: DMSO is the vehicle control. Its printed value is included all the same.
Supplementary Fig. S10. B591 preferentially targets CSCs. […] Following a 4-day recovery period, the expression of CSC markers was analyzed with western blot analysis.

[4] = test system: SUM-159PT orthotopic xenografts; assay: Tumor recurrence study in SUM-159PT xenografts; assay type: in vivo, NOD/SCID mice; settings: paclitaxel 4 mg/kg, B591 10 mg/kg, i.p., 2 weeks, then 3 weeks recurrence
Experimental: as §1
In the tumor recurrence study, orthotopic xenografts were established with 5 × 10^6 SUM-159PT cells. When tumor volume reached about 50 mm^3, mice were randomly divided into four groups for treatment with vehicle, 4 mg/kg Paclitaxel, 10 mg/kg B591, and combination of 4 mg/kg Paclitaxel plus 10 mg/kg B591 (i.p.). Treatment was stopped after 2 weeks, and the tumors were allowed for recurrence for 3 weeks. Tumor volume and the body weight of mice were measured during the experiments. In the end of treatment, the mice were killed, and the tumor tissues were dissected and weighted.

[5] = test system: MDA-MB-231 and SUM-159PT mammospheres; assay: Secondary mammosphere-formation assay; assay type: cell-based, human; settings: primary mammospheres treated 48 h, then passaged
Experimental: Cells were treated with indicated agents for 48 h, and cells were harvested and processed for apoptosis assay using the PE-Annexin V/7-AAD Apoptosis Detection Kit. d Representative flow cytometry plots of apoptosis inducing activity of B591 (10 μM) and paclitaxel (10 nM) on monolayer and mammosphere MDA-MB-231 cells. e B591 preferentially targeted CD44^high/CD24^low cells. Cells were treated with B591 or paclitaxel for 2 days. Following a 4-day recovery period, cells were co-stained with CD44 and CD24 antibodies and subjected to FACS analysis. Representative flow cytometry plots show the effect of B591 on CD44^high/CD24^low population in MDA-MB-231 cells in vitro. f B591 decreased mammosphere forming efficiency. Primary MDA-MB-231 mammospheres were treated with B591 or paclitaxel for 48 h. Results of the secondary mammosphere-formation assay are shown. Scale bar represents 40 μm. g B591 decreased the expression of CSC markers in MDA-MB-231 cells. Cells were treated with B591 or paclitaxel for 2 days. […]
In the mammosphere assay, MDA-MB-231 (Fig. 3f) and SUM-159PT (Supplementary Fig. S10D) cells were treated with B591 or paclitaxel, and the mammospheres were collected and subsequently passaged. Secondary Mammosphere-forming activity was determined, which reflects the self-renewal capability of CSCs. […]

[6] = test system: MDA-MB-231 and SUM-159PT monolayer and mammosphere cells; assay: Proliferation inhibition of monolayer versus mammosphere cells; assay type: cell-based, human
Experimental: The proliferation inhibitory activities of B591 were compared between monolayer and mammosphere cells.
as §2

Structure (SMILES) | Phosphorylation of Akt and ERK [1] | Effect on PI3K/Akt, mTORC1 and mTORC2 signaling [2] | Formation of mammospheres / paclitaxel-enriched CSCs (SUM-159PT cells) | Apoptosis induction, mammosphere versus monolayer populations [3] | Tumor growth and regrowth after end of treatment [4] | Secondary mammosphere-forming ability [5] | Proliferation inhibitory activity, mammosphere versus monolayer cells [6]
CO[C@H]1C[C@@H]2CC[C@@H](C)[C@@](O)(O2)C(=O)C(=O)N2CCCC[C@H]2C(=O)O[C@H]([C@H](C)C[C@@H]2CC[C@@H](O)[C@H](OC)C2)CC(=O)[C@H](C)/C=C(\C)[C@@H](O)[C@@H](OC)C(=O)[C@H](C)C[C@H](C)/C=C/C=C/C=C/1C [rapamycin, reference compound] | induced a hyper-activation of Akt and increased ERK phosphorylation |  |  |  |  |  | 
Oc1cccc(-c2nc(N3CCOCC3)c3oc4ncccc4c3n2)c1 [PI-103] |  | inhibited PI3K downstream mTORC1 and mTORC2 signaling |  |  |  |  | 
CC(=O)O[C@H]1C(=O)[C@@]2(C)[C@H]([C@H](OC(=O)c3ccccc3)[C@]3(O)C[C@H](OC(=O)[C@H](O)[C@@H](NC(=O)c4ccccc4)c4ccccc4)C(C)=C1C3(C)C)[C@]1(OC(C)=O)CO[C@@H]1C[C@@H]2O [paclitaxel, reference compound] |  | did not show any effect | increased the formation of mammospheres | induced less apoptosis of mammosphere populations than monolayer populations | induced initial tumor remission, but these tumors regrew quickly after termination of paclitaxel therapy | increased | mammosphere cells were resistant
